Test results from ChEMBL document CHEMBL3108668, “Antitumor activity of jujuboside B and the underlying mechanism via induction of apoptosis and autophagy” (J Nat Prod, 2014).
pIC50: −log10 of the molar value. Active and inactive are the calls of the source. No cut-off for these calls is given here.

Columns and labels:
AGS [1] = test: Induction of apoptosis in human AGS cells assessed as caspase-9 activation at 25 to 150 uM after 24 hrs by Western blotting analysis; type: functional, cell-based
HCT-116 [2] = test: Induction of apoptosis in human HCT116 cells assessed as late apoptotic cells at 100 uM after 24 hrs by annexin V-FITC/propidium iodide staining-based flow cytometry (reference value: 2.71%); type: functional
AGS [3] = test: Induction of autophagy in human AGS cells assessed as massive vacuole formation at 50 uM after 24 hrs by fluorescence microscopy; type: functional, cell-based
AGS [4] = test: Induction of autophagy in human AGS cells assessed as massive vacuole formation at 50 uM after 24 hrs by acridine orange staining-based fluorescence microscopy; type: functional, cell-based
HCT-116 [5] = test: Induction of apoptosis in human HCT116 cells assessed as early apoptotic cells at 50 uM after 24 hrs by annexin V-FITC/propidium iodide staining-based flow cytometry (reference value: 3.61%); type: functional
AGS [6] = test: Induction of apoptosis in human AGS cells assessed as cell shrinkage at >100 uM after 24 hrs by acridine orange staining-based microscopy; type: functional
AGS [7] = test: Induction of apoptosis in human AGS cells assessed as membrane blebbing at >100 uM after 24 hrs by acridine orange staining-based microscopy; type: functional, cell-based
HCT-116 [8] = test: Induction of autophagy in human HCT116 cells assessed as increase in LC3-2 level at 50 uM after 24 hrs by Western blotting analysis; type: functional, cell-based
HCT-116 [9] = test: Induction of apoptosis in human HCT116 cells assessed as formation of apoptotic bodies at >100 uM after 24 hrs by acridine orange staining-based microscopy; type: functional, cell-based
AGS [10] = test: Induction of apoptosis in human AGS cells assessed as reduction of caspase8 activation at 100 uM after 24 hrs by Western blotting analysis in presence of SB202190; type: functional, cell-based
AGS [11] = test: Induction of apoptosis in human AGS cells assessed as apoptotic cells at 50 uM after 24 hrs by annexin V-FITC/propidium iodide staining-based flow cytometry; type: functional
HCT-116 [12] = test: Induction of autophagy in human HCT116 cells assessed as massive vacuole formation at 50 uM after 24 hrs by acridine orange staining-based fluorescence microscopy in presence of bafilomycin A1; type: functional, cell-based
AGS [13] = test: Induction of apoptosis in human AGS cells assessed as late apoptotic cells at 100 uM after 24 hrs by annexin V-FITC/propidium iodide staining-based flow cytometry (reference value: 7.3%); type: functional
AGS [14] = test: Induction of autophagy in human AGS cells assessed as massive vacuole formation at 50 uM after 24 hrs by acridine orange staining-based fluorescence microscopy in presence of bafilomycin A1; type: functional, cell-based
HCT-116 [15] = test: Induction of apoptosis in human HCT116 cells assessed as late apoptotic cells at 150 uM after 24 hrs by annexin V-FITC/propidium iodide staining-based flow cytometry (reference value: 2.71%); type: functional
AGS [16] = test: Induction of apoptosis in human AGS cells assessed as early apoptotic cells at 50 uM after 24 hrs by annexin V-FITC/propidium iodide staining-based flow cytometry (reference value: 6.6%); type: functional
HCT-116 [17] = test: Induction of apoptosis in human HCT116 cells assessed as early apoptotic cells at 100 uM after 24 hrs by annexin V-FITC/propidium iodide staining-based flow cytometry (reference value: 3.61%); type: functional
AGS [18] = test: Induction of apoptosis in human AGS cells assessed as caspase-8 activation at 25 to 150 uM after 24 hrs by Western blotting analysis; type: functional, cell-based
AGS [19] = test: Induction of apoptosis in human AGS cells assessed as reduction of caspase8 activation at 100 uM after 24 hrs by Western blotting analysis in presence of bafilomycin A1; type: functional, cell-based
HCT-116 [20] = test: Induction of apoptosis in human HCT116 cells assessed as necrotic cells at 50 uM after 24 hrs by annexin V-FITC/propidium iodide staining-based flow cytometry (reference value: 0.68%); type: functional
AGS [21] = test: Cell cycle arrest in human AGS cells assessed as accumulation at sub G1 phase at 100 uM after 24 hrs by propidium iodide staining-based flow cytometry in presence of bafilomycin A1; type: functional
[22] = Cytotoxicity against human Chang cells after 24 hrs by MTT assay; type: cell-based
AGS [23] = test: Cell cycle arrest in human AGS cells assessed as accumulation at sub G1 phase at 200 uM after 24 hrs by propidium iodide staining-based flow cytometry; type: functional
HCT-116 [24] = test: Induction of apoptosis in human HCT116 cells assessed as late apoptotic cells at 50 uM after 24 hrs by annexin V-FITC/propidium iodide staining-based flow cytometry (reference value: 2.71%); type: functional
AGS [25] = test: Induction of apoptosis in human AGS cells assessed as necrotic cells at 100 uM after 24 hrs by annexin V-FITC/propidium iodide staining-based flow cytometry (reference value: 0.12%); type: functional
AGS [26] = test: Induction of apoptosis in human AGS cells assessed as necrotic cells at 150 uM after 24 hrs by annexin V-FITC/propidium iodide staining-based flow cytometry (reference value: 0.12%); type: functional
AGS [27] = test: Cell cycle arrest in human AGS cells assessed as accumulation at sub G1 phase at 150 uM after 24 hrs by propidium iodide staining-based flow cytometry; type: functional
AGS [28] = test: Induction of apoptosis in human AGS cells assessed as late apoptotic cells at 50 uM after 24 hrs by annexin V-FITC/propidium iodide staining-based flow cytometry (reference value: 7.3%); type: functional
AGS [29] = test: Induction of apoptosis in human AGS cells assessed as increase in FasL level at 100 uM after 24 hrs by Western blotting analysis in presence of bafilomycin A1; type: functional, cell-based
AGS [30] = test: Induction of apoptosis in human AGS cells assessed as apoptotic cells at 150 uM after 24 hrs by annexin V-FITC/propidium iodide staining-based flow cytometry; type: functional
AGS [31] = test: Induction of apoptosis in human AGS cells assessed as early apoptotic cells at 100 uM after 24 hrs by annexin V-FITC/propidium iodide staining-based flow cytometry (reference value: 6.6%); type: functional
AGS [32] = test: Induction of apoptosis in human AGS cells assessed as formation of apoptotic bodies at >100 uM after 24 hrs by acridine orange staining-based microscopy; type: functional, cell-based
AGS [33] = test: Induction of apoptosis in human AGS cells assessed as late apoptotic cells at 25 uM after 24 hrs by annexin V-FITC/propidium iodide staining-based flow cytometry (reference value: 7.3%); type: functional
HCT-116 [34] = test: Antitumor activity against human HCT116 cells xenografted in BALB/c nude mouse assessed as reduction of Ki-67 expression at 40 mg/kg, ip administered 3 times a week for 5 weeks by immunohistochemical analysis; type: functional, organism-based; set-up: dose 40 mg/kg
AGS [35] = test: Induction of apoptosis in human AGS cells assessed as cell rounding at >100 uM after 24 hrs by acridine orange staining-based microscopy; type: functional
AGS [36] = test: Induction of apoptosis in human AGS cells assessed as reduction of caspase8 activation at 100 uM after 24 hrs by Western blotting analysis in presence of SP600125; type: functional, cell-based
AGS [37] = test: Induction of autophagy in human AGS cells assessed as increase in LC3-2 level at 50 uM after 24 hrs by Western blotting analysis; type: functional, cell-based
HCT-116 [38] = test: Induction of apoptosis in human HCT116 cells assessed as apoptotic cells after 24 hrs by annexin V-FITC/propidium iodide staining-based flow cytometry; type: functional, cell-based

With CC(C)=C[C@H]1C[C@](C)(O)[C@@H]2[C@H]3CC[C@@H]4[C@@]5(C)CC[C@H](O[C@@H]6OC[C@H](O)[C@H](O[C@@H]7O[C@H](CO)[C@@H](O)[C@H](O)[C@H]7O[C@@H]7OC[C@@H](O)[C@H](O)[C@H]7O)[C@H]6O[C@@H]6O[C@@H](C)[C@H](O)[C@@H](O)[C@H]6O)C(C)(C)[C@@H]5CC[C@@]4(C)[C@@]34CO[C@@]2(C4)O1 as the compound, how does the Activity (AGS [1]) read?
Its Activity is “inactive”.

And the Activity (HCT-116 [2])?
Its Activity is 9.74%.

What about the Activity (AGS [3]) of the same compound?
The Activity was “Active”.

What about the Activity (AGS [4]) of the same compound?
The Activity was “Active”.

What about the Activity (HCT-116 [5]) of the same compound?
The Activity was 6.65%.

And the Activity (AGS [6])?
The Activity was “Active”.

What about the Activity (AGS [7]) of the same compound?
The Activity was “Active”.

What about the Activity (HCT-116 [8]) of the same compound?
The Activity was “Active”.

And the Activity (HCT-116 [9])?
Its Activity is “Active”.

And the Activity (AGS [10])?
Its Activity is “inactive”.

What about the Activity (AGS [11]) of the same compound?
The Activity was 15.78%.

And the Activity (HCT-116 [12])?
The Activity was “inactive”.

What about the Activity (AGS [13]) of the same compound?
Its Activity is 12.44%.

What about the Activity (AGS [14]) of the same compound?
Its Activity is “inactive”.

And the Activity (HCT-116 [15])?
Its Activity is 17.9%.

And the Activity (AGS [16])?
Its Activity is 8.73%.

What about the Activity (HCT-116 [17]) of the same compound?
Its Activity is 37.59%.

And the Activity (AGS [18])?
The Activity was “Active”.

What about the Activity (AGS [19]) of the same compound?
Its Activity is “Active”.

And the Activity (HCT-116 [20])?
The Activity was 0.5%.

And the Activity (AGS [21])?
The Activity was “Active”.

And the pIC50 [22]?
The pIC50 was 3.74.

And the Activity (AGS [23])?
Its Activity is 49.65%.

And the Activity (HCT-116 [24])?
Its Activity is 2.53%.

And the Activity (AGS [25])?
Its Activity is 1.06%.

What about the Activity (AGS [26]) of the same compound?
The Activity was 1.57%.

And the Activity (AGS [27])?
The Activity was 21.73%.

What about the Activity (AGS [28]) of the same compound?
The Activity was 7.05%.

What about the Activity (AGS [29]) of the same compound?
Its Activity is “Active”.

And the Activity (AGS [30])?
Its Activity is 39.55%.

And the Activity (AGS [31])?
Its Activity is 16.41%.

And the Activity (AGS [32])?
Its Activity is “Active”.

And the Activity (AGS [33])?
The Activity was 5.24%.

What about the Activity (HCT-116 [34]) of the same compound?
Its Activity is “Active”.

And the Activity (AGS [35])?
The Activity was “Active”.

And the Activity (AGS [36])?
The Activity was “inactive”.

What about the Activity (AGS [37]) of the same compound?
Its Activity is “Active”.

And the Activity (HCT-116 [38])?
The Activity was “Dose-dependent effect”.
